Assay results: PubChem BioAssay (NCI)
Where “and” joins values, the source holds several entries; their conditions need not be identical. Equal entries are not always repeated.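 1) Cells in 96-well plates. 2) Compound, 48 h, 5 concentrations. 3) Linear interpolation between surrounding doses. 4) Unreached endpoint = highest concentration. At the GI50, growth is halved. At the TGI there is no net growth.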

Legend:
Test in all cases: NCI tumour cell line growth inhibition, 48 h
HCT-15 colon = test system: HCT-15 colon
A498 renal = test system: A498 renal
HCT-116 colon = test system: HCT-116 colon
SK-OV-3 ovarian = test system: SK-OV-3 ovarian
UACC-62 melanoma = test system: UACC-62 melanoma
SF-268 CNS = test system: SF-268 CNS
SNB-75 CNS = test system: SNB-75 CNS
CAKI-1 renal = test system: CAKI-1 renal
SK-MEL-5 melanoma = test system: SK-MEL-5 melanoma
MALME-3M melanoma = test system: MALME-3M melanoma

SMILES	GI50 (HCT-15 colon)	TGI (HCT-15 colon)	GI50 (A498 renal)	TGI (A498 renal)	GI50 (HCT-116 colon)	TGI (HCT-116 colon)	GI50 (SK-OV-3 ovarian)	TGI (SK-OV-3 ovarian)	GI50 (UACC-62 melanoma)	TGI (UACC-62 melanoma)	GI50 (SF-268 CNS)	TGI (SF-268 CNS)	GI50 (SNB-75 CNS)	TGI (SNB-75 CNS)	GI50 (CAKI-1 renal)	TGI (CAKI-1 renal)	GI50 (SK-MEL-5 melanoma)	TGI (SK-MEL-5 melanoma)	GI50 (MALME-3M melanoma)	TGI (MALME-3M melanoma)
COC(=O)/C=C/c1cc(OC(C)=O)c2c(c1)C(C(=O)OC)C(c1ccc(OC(C)=O)c(OC(C)=O)c1)O2 (stereo not given)	0.0445 µM	> 100 µM	0.948 µM	5.58 µM	0.0499 µM	> 51.4 µM	2.46 µM	> 73.9 µM	0.298 µM	21.8 µM	0.617 µM	> 100 µM	0.0382 µM	56.7 µM	0.278 µM	94 µM	0.0572 µM	1.98 µM	1.08 µM	56.6 µM
COc1cc2c3c(n(C)c(=O)c2cc1OC)-c1cc2c(cc1C3=O)OCO2	–	> 100 µM	–	> 97 µM	–	> 100 µM	–	> 100 µM	–	32.4 µM	–	> 100 µM	–	22.6 µM	–	> 53.1 µM	–	> 44.8 µM	–	> 100 µM
CCCCCCn1c(-c2ccc(C(=O)O/N=C(\N)c3ccc4c(c3)OCO4)cc2)nc(-c2ccccc2)c1-c1ccccc1	1.61 µM	3.34 µM	1.01 µM	3.86 µM	1.59 µM	3.34 µM	10.4 µM	64.3 µM	2.87 µM	10.5 µM	2.11 µM	4.64 µM	1.7 µM	4.9 µM	1.39 µM	2.86 µM	2.22 µM	4.93 µM	1.83 µM	4.06 µM
NC(=O)c1cc(I)ccc1NC(=O)/C=C/c1ccccc1	0.587 µM	> 100 µM	1.28 µM	13 µM	0.475 µM	> 40.3 µM	0.604 µM	12.8 µM	0.457 µM	> 77.6 µM	1.4 µM	23.7 µM	0.316 µM	8.68 µM	0.652 µM	24.8 µM	0.38 µM	12.5 µM	2.1 µM	> 100 µM
Nc1nc(Cl)nc2c1ncn2C1CC(O)C(CO)O1 (stereo not given)	–	> 100 µM	–	48.2 µM	–	> 100 µM	–	> 100 µM	–	6.15 µM	–	> 95.7 µM	–	> 91.9 µM	–	17.3 µM	–	> 91.4 µM	–	> 100 µM
CC12c3ccccc3C(OC=O)(c3ccccc31)C1(C)c3ccccc3C2(OC=O)c2ccccc21	–	> 100 µM	–	> 100 µM	–	> 100 µM	–	> 100 µM	–	> 100 µM	–	> 100 µM	–	> 100 µM	–	> 100 µM	–	> 100 µM	–	> 100 µM
C=C(CN(C)Cc1ccccc1)c1ccc(NC(=O)c2ccc(C(=C)CN(C)Cc3ccccc3)cc2)cc1	76.5 µM	> 100 µM	20.8 µM	48.9 µM	31.7 µM	> 100 µM	33.7 µM	> 100 µM	50.2 µM	> 100 µM	39.3 µM	> 100 µM	13.9 µM	32.2 µM	53 µM	> 100 µM	68.3 µM	> 100 µM	> 100 µM	> 100 µM
Cc1cc(C)nc(NS(=O)(=O)c2ccc(Nc3c4ccccc4nc4c(C(=O)N5CCN(CCO)CC5)cccc34)cc2)n1	–	> 100 µM	–	> 100 µM	–	> 100 µM	–	> 100 µM	–	> 100 µM	–	> 100 µM	–	> 100 µM	–	> 100 µM	–	> 100 µM	–	> 100 µM
NC(=S)N/N=C/c1ncccc1O	2.67 µM	> 439 µM	3.74 µM	29.2 µM and 32.4 µM	2.86 µM	> 391 µM	4.76 µM	49.1 µM and 130 µM	1.67 µM	11 µM and 9.55 µM	2.88 µM and 0.736 µM	29.6 µM and 89.4 µM	2.16 µM	> 51.9 µM and 60.6 µM	2.59 µM	> 56.7 µM and 63.9 µM	2.04 µM and 1.26 µM	35.5 µM and 67.2 µM	4.47 µM	> 64.8 µM and 156 µM
CCCCNCCCNCCCNC(=O)c1csc(-c2csc(CCNC(=O)C(NC(=O)C(C)C(O)C(C)NC(=O)C(NC(=O)c3nc(C(CC(N)=O)NCC(N)C(N)=O)nc(N)c3C)C(OC3OC(CO)C(O)C(O)C3OC3OC(CO)C(O)C(OC(N)=O)C3O)c3cnc[nH]3)C(C)O)n2)n1 (stereo not given)	2.12 µM	–	1.25 µM	50 µM and 28.1 µM	0.427 µM	50 µM and 14.2 µM	9.49 µM	50 µM and 36.2 µM	0.68 µM	11.8 µM and 4.8 µM	3.16 µM	50 µM and 15.2 µM	0.0257 µM	0.716 µM and 3.37 µM	–	50 µM and 17 µM	3.14 µM	50 µM and 11.6 µM	0.697 µM	16.9 µM
O=C(Nc1ncc(Cc2cccc(C(F)(F)F)c2)s1)c1ccc2c(c1)OCCO2	0.139 µM	> 100 µM	0.0484 µM	0.442 µM	0.32 µM	> 100 µM	0.746 µM	46.6 µM	0.372 µM	> 100 µM	1.13 µM	> 100 µM	0.185 µM	7.17 µM	0.141 µM	> 45.9 µM	0.281 µM	2.36 µM	0.569 µM	> 60.9 µM
Cc1nc2c(N)ncnc2o1	–	> 100 µM	–	> 100 µM	–	> 100 µM	–	> 100 µM	–	> 100 µM	–	> 100 µM	–	> 100 µM	–	> 100 µM	–	> 100 µM	–	> 100 µM
Cc1cc(C(=O)CSC(=S)SC(C)(C)C)ccc1Cl	–	57.6 µM	–	29.8 µM	–	42.3 µM	–	94.5 µM	–	30.1 µM	–	33.1 µM	–	54.3 µM	–	> 100 µM	–	31.7 µM	–	33.4 µM
Nc1c(C(=O)Nc2ccccn2)sc2nc3c(cc12)C(=O)CCC3	0.812 µM	> 100 µM	0.345 µM	> 100 µM	0.52 µM	> 100 µM	1.41 µM	> 100 µM	0.621 µM	> 100 µM	8.26 µM	> 100 µM	0.646 µM	22.2 µM	0.697 µM	> 100 µM	0.444 µM	> 100 µM	13.1 µM	> 100 µM
CCn1cc(-c2ccnc3[nH]c(-c4cccc(CN(C)C)c4)cc23)c(-c2ccc(NC(=O)N(C)C)cc2)n1	2.85 µM and 3.15 µM	27.2 µM and > 10 µM	0.0673 µM and 0.519 µM	0.749 µM and 3.28 µM	0.322 µM and 0.455 µM	17.7 µM and > 10 µM	2.16 µM and 3.83 µM	15.2 µM and > 10 µM	2.49 µM and 5.74 µM	22.5 µM and > 10 µM	3.03 µM and 2.07 µM	20.9 µM and > 10 µM	0.217 µM and 0.461 µM	2.38 µM and 3.42 µM	3.36 µM and 1.17 µM	18.9 µM and > 10 µM	6.55 µM	23.6 µM	12 µM and > 10 µM	29.3 µM and > 10 µM
COc1ccc(CNc2c3ccccc3nc3ccccc23)cc1F	2.45 µM	7.8 µM	1.98 µM	5.99 µM	2.92 µM	12.3 µM	3.66 µM	16.3 µM	2.97 µM	12.9 µM	3.76 µM	15.1 µM	3.21 µM	15.2 µM	2.26 µM	8.35 µM	3.21 µM	10.6 µM	2.71 µM	7.73 µM
N#CC(I)CS(=O)(=O)c1ccccc1 (stereo not given)	5.48 µM	19.4 µM	35.4 µM	> 100 µM	1.66 µM	3.11 µM	> 100 µM	> 100 µM	16.6 µM	30.3 µM	18.8 µM	35.2 µM	15.6 µM	36 µM	1.61 µM	3.32 µM	17.7 µM	31.9 µM	2.13 µM	4.27 µM
Cc1nc2sccn2c1-c1nc2sccn2c1/C=C1/C(=O)Nc2ccccc21	3.09 µM	20.7 µM	2.04 µM	8.26 µM	3.3 µM	30 µM	2.4 µM	15.4 µM	5.15 µM	> 100 µM	6.18 µM	33.1 µM	2.38 µM	16 µM	5.29 µM	69.4 µM	2.94 µM	12.5 µM	3.26 µM	70.5 µM
COc1ccc(/C=C\c2cc(OC)c(OC)c(OC)c2)cc1OCC(=O)O	–	80.8 µM	–	> 83 µM	–	31.5 µM	–	94 µM	–	> 100 µM	–	> 100 µM	–	> 58.7 µM	–	> 100 µM	–	50.1 µM	–	> 100 µM
O=C1C=C(Nc2ccc(Cl)cc2C(=O)c2ccccc2)c2ccccc2C1=O	–	> 100 µM	–	> 100 µM	–	> 100 µM	–	> 100 µM	–	> 100 µM	–	> 100 µM	–	> 100 µM	–	> 100 µM	–	> 100 µM	–	> 100 µM
Cc1cccc(NC2=C(Cl)C(=O)c3nc(C)ccc3C2=O)c1	0.431 µM	2.09 µM	0.235 µM	2.43 µM	0.44 µM	1.86 µM	11.7 µM	24.2 µM	1.13 µM	2.49 µM	2.1 µM	6.4 µM	2.73 µM	7.33 µM	1.06 µM	2.26 µM	1.66 µM	3.03 µM	1.65 µM	3.07 µM
CN1Nc2ccccc2CC1=O	–	> 100 µM	–	> 100 µM	–	> 100 µM	–	> 100 µM	–	> 100 µM	–	> 100 µM	–	> 100 µM	–	> 100 µM	–	> 100 µM	–	> 100 µM
Cc1cc2c(cc1C)[n+](=O)cc(C(=O)C/C(=N/NC(=S)NN)C(=O)Nc1cccc(C(F)(F)F)c1)n2[O-]	–	> 100 µM	–	> 100 µM	–	> 100 µM	–	> 100 µM	–	> 100 µM	–	> 100 µM	–	> 100 µM	–	> 100 µM	–	> 100 µM	–	> 100 µM
CCN(Cc1c(F)cccc1OC)c1ccc(CO)c(Cl)c1	12.8 µM	41.5 µM	0.0325 µM	0.106 µM	0.0546 µM	> 37.2 µM	3.65 µM	19.9 µM	0.0961 µM	0.953 µM	23.2 µM	> 63.5 µM	14.5 µM	46.2 µM	3.05 µM	35.5 µM	11.9 µM	24.2 µM	14 µM	31.7 µM
O=[N+]([O-])c1ccccc1N=Nc1c(O)[nH]c2c(Cl)cc(Cl)cc12	–	> 100 µM	–	> 100 µM	–	> 100 µM	–	> 100 µM	–	> 100 µM	–	> 100 µM	–	25.6 µM	–	> 91.8 µM	–	> 100 µM	–	> 95.7 µM
CCN(CCNS(C)(=O)=O)c1ccc(N)c(C)c1	3.48 µM	17.4 µM	12.6 µM	55.2 µM	2.5 µM	6.2 µM	17.9 µM	32 µM	–	–	11.3 µM	24.2 µM	18.8 µM	37.8 µM	2.54 µM	6.78 µM	11.9 µM	24.6 µM	10.2 µM	24.4 µM
CCCCCCCC(=O)OCC1OC(n2cc(F)c(=O)[nH]c2=O)C(N)C(OC(=O)CCCCCCC)C1O (stereo not given)	–	34.2 µM	–	39.1 µM	–	34.6 µM	–	93.8 µM	–	32.4 µM	–	35.4 µM	–	28.4 µM	–	41.5 µM	–	22.3 µM	–	36.9 µM
NNc1ncnc2nc[nH]c12	4.58 µM	> 100 µM	5.41 µM	> 100 µM	2.25 µM	15.9 µM	2.63 µM	28.4 µM	3.05 µM	39.9 µM	8.24 µM	> 100 µM	24.7 µM	> 100 µM	0.793 µM	18.3 µM	6.05 µM	36.4 µM	28.6 µM	> 100 µM
CCCCCCCCc1cc2c(O)c(c1)Cc1cc(CCCCCCCC)cc(c1O)Cc1cc(CCCCCCCC)cc(c1O)Cc1cc(CCCCCCCC)cc(c1O)Cc1cc(CCCCCCCC)cc(c1O)Cc1cc(CCCCCCCC)cc(c1O)C2	–	> 100 µM	–	> 100 µM	–	> 100 µM	–	> 100 µM	–	> 100 µM	–	> 100 µM	–	> 100 µM	–	> 100 µM	–	–	–	> 100 µM
